Assay results as given in article PMC11154717, “Evaluation of Novel Spiro-pyrrolopyridazine Derivatives as Anticancer Compounds: In Vitro Selective Cytotoxicity, Induction of Apoptosis, EGFR Inhibitory Activity, and Molecular Docking Analysis” (ACS Omega, 2024).

Key:
Type in all cases: cell-based, human
[1] = test system: nontumorigenic HEK-293 cells; test: XTT cell viability assay, HEK-293
Description: (§1) Human breast cancer (MCF-7), human lung cancer (H69AR), and human prostate cancer (PC-3) human nontumorigenic HEK-293 cells were obtained from the Health Protection Agency (UK) and Interlab Cell Line Collection (ICLC, Italy). Cells were maintained in RPMI medium (Sigma) containing 10% heat-inactivated fetal bovine serum, 1% penicillin, and 1% L-glutamine in a 37° humidified CO2 incubator.
(§2) XTT (2,3-bis(2-methoxy-4-nitro-5-sulfophenyl)-2H-tetrazolium-5-carboxanilide) cell viability test was used to determine the cytotoxic activities of SPPs, which were dissolved in dimethyl sulfoxide (DMSO). Cells were seeded in 96-well plates at a density of 10^4/well and treated with increasing concentrations of SPP (1–250 μM) for 24, 48, and 72 h. After the incubation period, 100 μL of XTT was added to all experimental wells, and 96-well plates were incubated at 37 °C for 4 h. After the color change was observed, the absorbance values of the wells were recorded at 570 nm in the microplate reader (Tecan). The IC50 values for all synthesized compounds, representing the concentration needed to inhibit 50% of cancer cell proliferation, were determined using Biosoft CalcuSyn 2.1 software.[13] The following formula was used to calculate selectivity indexes (SIs), which represent the cytotoxic selectivity of SPPs against cancer cells and normal cells (HEK-293): […]

[2] = test system: MCF-7 breast cancer cells; test: XTT cell viability assay, MCF-7; conditions: for IC50: XTT, 72 h
Description: as §1, §2

H69AR lung cancer cells = test: XTT cell viability assay, H69AR; conditions: for IC50: XTT, 72 h
Description: as §1, §2

[3] = test system: PC-3 prostate cancer cells; test: XTT cell viability assay, PC-3; conditions: for IC50: XTT, 72 h
Description: as §1, §2

Work on Cc1ccc(-c2nnc(-c3ccccc3)c3c2C2(CCCCC2)N=C3c2ccccc2)cc1 [SPP11] yielded an IC50 ([1]; Homo sapiens, HEK293, 72 h) of 87.7 ± 1.6 µM, an IC50 ([2]; Homo sapiens, MCF7) of 95.2 ± 2.4 µM and an IC50 (H69AR lung cancer cells; Homo sapiens, H69AR) of 75.7 ± 3.5 µM. The IC50 ([3]; Homo sapiens) was 80.5 ± 2.3 µM.
Fc1ccc(-c2nnc(-c3ccccc3)c3c2C2(CCCCC2)N=C3c2ccccc2)cc1 [SPP12] showed an IC50 ([1]; Homo sapiens, HEK293, 72 h) of 40.8 ± 2.2 µM, an IC50 ([2]; Homo sapiens, MCF7) of 12.6 ± 2.6 µM and an IC50 (H69AR lung cancer cells; Homo sapiens, H69AR) of 19.2 ± 0.4 µM. It also gave an IC50 ([3]; Homo sapiens) of 24.2 ± 0.8 µM.
N.N.[Cl][Pt][Cl] [cisplatin, reference compound] showed an IC50 ([1]; 72 h) of 16.4 ± 0.4 µM, an IC50 [2] of 16.8 ± 2.4 µM and an IC50 (H69AR lung cancer cells) of 18.2 ± 0.8 µM. For the same compound, the IC50 [3] was 14.9 ± 4.1 µM.
With CC(C)(C)c1ccc(C2=NC3(CCCCC3)c3c(-c4cccc(Br)c4)nnc(-c4ccccc4)c32)cc1 [SPP19] the IC50 ([1]; Homo sapiens, HEK293, 72 h) was 33.4 ± 1.6 µM, the IC50 ([2]; Homo sapiens, MCF7) was 38.4 ± 0.7 µM and the IC50 (H69AR lung cancer cells; Homo sapiens, H69AR) was 34.9 ± 2.1 µM. The IC50 ([3]; Homo sapiens) was 61 ± 2.2 µM.
With FC(F)(F)c1ccc(C2=NC3(CCCCC3)c3c(-c4ccccc4)nnc(-c4ccccc4)c32)cc1 [SPP8] the IC50 ([1]; Homo sapiens, HEK293, 72 h) was 38.2 ± 1.3 µM, the IC50 ([2]; Homo sapiens, MCF7) was 62.2 ± 3.5 µM and the IC50 (H69AR lung cancer cells; Homo sapiens, H69AR) was 71.9 ± 1.8 µM. The IC50 ([3]; Homo sapiens) was 35.5 ± 0.7 µM.
For Cc1ccc(-c2nnc(-c3ccccc3)c3c2C2(CCCCC2)N=C3c2ccc(C(C)(C)C)cc2)cc1 [SPP17], the IC50 ([1]; Homo sapiens, HEK293, 72 h) was 74.6 ± 0.7 µM, the IC50 ([2]; Homo sapiens, MCF7) was 61.9 ± 2.6 µM and the IC50 (H69AR lung cancer cells; Homo sapiens, H69AR) was 63.3 ± 1.4 µM. The IC50 ([3]; Homo sapiens) was 88.2 ± 3.5 µM.
In the case of Cc1ccc(C2=NC3(CCCCC3)c3c(-c4ccccc4)nnc(-c4ccccc4)c32)cc1 [SPP2], the IC50 ([1]; Homo sapiens, HEK293, 72 h) is reported as 37.7 ± 0.2 µM, the IC50 ([2]; Homo sapiens, MCF7) is reported as 24.6 ± 0.3 µM and the IC50 (H69AR lung cancer cells; Homo sapiens, H69AR) is reported as 18.7 ± 1.4 µM. The IC50 ([3]; Homo sapiens) was 44.2 ± 2.8 µM.
For COc1ccccc1C1=NC2(CCCCC2)c2c(-c3ccccc3)nnc(-c3ccccc3)c21 [SPP5], the IC50 ([1]; Homo sapiens, HEK293, 72 h) was 45.4 ± 2 µM, the IC50 ([2]; Homo sapiens, MCF7) was 40.9 ± 1.8 µM and the IC50 (H69AR lung cancer cells; Homo sapiens, H69AR) was 62.7 ± 0.7 µM. The IC50 ([3]; Homo sapiens) was 70.6 ± 2.4 µM.
Clc1ccc(C2=NC3(CCCCC3)c3c(-c4ccccc4)nnc(-c4ccccc4)c32)cc1 [SPP6] showed an IC50 ([1]; Homo sapiens, HEK293, 72 h) of 77.8 ± 1.7 µM, an IC50 ([2]; Homo sapiens, MCF7) of 48.2 ± 1.4 µM and an IC50 (H69AR lung cancer cells; Homo sapiens, H69AR) of 137 ± 1.6 µM. For the same compound, the IC50 ([3]; Homo sapiens) was 35.6 ± 0.4 µM.
CC(C)(C)c1ccc(C2=NC3(CCCCC3)c3c(-c4ccccc4)nnc(-c4ccccc4)c32)cc1 [SPP4] gave an IC50 ([1]; Homo sapiens, HEK293, 72 h) of 55.3 ± 3.6 µM, an IC50 ([2]; Homo sapiens, MCF7) of 67.1 ± 0.2 µM and an IC50 (H69AR lung cancer cells; Homo sapiens, H69AR) of 92 ± 3.2 µM. It also gave an IC50 ([3]; Homo sapiens) of 85.5 ± 1.2 µM.
In the case of C#Cc1cccc(Nc2ncnc3cc(OCCOC)c(OCCOC)cc23)c1 [erlotinib, reference compound], the IC50 ([1]; Homo sapiens, HEK293, 72 h) is reported as 14.7 ± 2.8 µM, the IC50 ([2]; Homo sapiens, MCF7) is reported as 19.4 ± 2 µM and the IC50 (H69AR lung cancer cells; Homo sapiens, H69AR) is reported as 21.5 ± 1.8 µM. The IC50 ([3]; Homo sapiens) was 18.9 ± 3.2 µM.
Work on CC(C)(C)c1ccc(C2=NC3(CCCCC3)c3c(-c4ccc(F)cc4)nnc(-c4ccccc4)c32)cc1 [SPP18] yielded an IC50 ([1]; Homo sapiens, HEK293, 72 h) of 58.5 ± 1.3 µM, an IC50 ([2]; Homo sapiens, MCF7) of 65.8 ± 1.4 µM and an IC50 (H69AR lung cancer cells; Homo sapiens, H69AR) of 77.4 ± 1.7 µM. For the same compound, the IC50 ([3]; Homo sapiens) was 59.6 ± 1.4 µM.
In the case of Clc1ccc(C2=NC3(CCCCC3)c3c(-c4ccccc4)nnc(-c4ccccc4)c32)cc1Cl [SPP7], the IC50 ([1]; Homo sapiens, HEK293, 72 h) is reported as 55.8 ± 0.6 µM, the IC50 ([2]; Homo sapiens, MCF7) is reported as 69.2 ± 1.2 µM and the IC50 (H69AR lung cancer cells; Homo sapiens, H69AR) is reported as 72.2 ± 3.4 µM. For the same compound, the IC50 ([3]; Homo sapiens) was 21.1 ± 2.1 µM.
With Cc1cccc(C2=NC3(CCCCC3)c3c(-c4ccc(F)cc4)nnc(-c4ccccc4)c32)c1 [SPP16] the IC50 ([1]; Homo sapiens, HEK293, 72 h) was 64.4 ± 2.3 µM, the IC50 ([2]; Homo sapiens, MCF7) was 58.3 ± 0.4 µM and the IC50 (H69AR lung cancer cells; Homo sapiens, H69AR) was 63.9 ± 2.8 µM. For the same compound, the IC50 ([3]; Homo sapiens) was 76.3 ± 0.2 µM.
Clc1ccc(C2=NC3(CCCCC3)c3c(-c4cccc(Br)c4)nnc(-c4ccccc4)c32)cc1 [SPP20] was tested, and the IC50 ([1]; Homo sapiens, HEK293, 72 h) was 18.3 ± 2.1 µM, the IC50 ([2]; Homo sapiens, MCF7) was 47.6 ± 2 µM and the IC50 (H69AR lung cancer cells; Homo sapiens, H69AR) was 140 ± 2.4 µM. It also gave an IC50 ([3]; Homo sapiens) of 24.2 ± 0.8 µM.
Brc1cccc(-c2nnc(-c3ccccc3)c3c2C2(CCCCC2)N=C3c2ccccc2)c1 [SPP13] showed an IC50 ([1]; Homo sapiens, HEK293, 72 h) of 52.7 ± 1.4 µM, an IC50 ([2]; Homo sapiens, MCF7) of 66.4 ± 1.2 µM and an IC50 (H69AR lung cancer cells; Homo sapiens, H69AR) of 70.8 ± 1.3 µM. For the same compound, the IC50 ([3]; Homo sapiens) was 89.7 ± 2.4 µM.
c1ccc(C2=NC3(CCCCC3)c3c(-c4ccccc4)nnc(-c4ccccc4)c32)cc1 [SPP1] showed an IC50 ([1]; Homo sapiens, HEK293, 72 h) of 16.5 ± 1.2 µM, an IC50 ([2]; Homo sapiens, MCF7) of 21.3 ± 0.4 µM and an IC50 (H69AR lung cancer cells; Homo sapiens, H69AR) of 27.1 ± 0.8 µM. It also gave an IC50 ([3]; Homo sapiens) of 35.4 ± 1.6 µM.
With Cc1cccc(C2=NC3(CCCCC3)c3c(-c4ccccc4)nnc(-c4ccccc4)c32)c1 [SPP3] the IC50 ([1]; Homo sapiens, HEK293, 72 h) was 7.5 ± 1 µM, the IC50 ([2]; Homo sapiens, MCF7) was 10.4 ± 1.5 µM and the “selectivity index (SI) MCF-7” value ([2]; versus HEK-293) was 0.72. For the same compound, the IC50 (H69AR lung cancer cells; Homo sapiens, H69AR) was 9.8 ± 0.7 µM, the “selectivity index (SI) H69AR” value (H69AR lung cancer cells; versus HEK-293) was 0.76 and the IC50 ([3]; Homo sapiens) was 8.3 ± 0.6 µM. For the same compound, the “selectivity index (SI) PC-3” value ([3]; versus HEK-293) was 0.90.
For Cc1ccc(-c2nnc(-c3ccccc3)c3c2C2(CCCCC2)N=C3c2cccc(C)c2)cc1 [SPP15], the IC50 ([1]; Homo sapiens, HEK293, 72 h) was 24.1 ± 1.8 µM, the IC50 ([2]; Homo sapiens, MCF7) was 29.7 ± 2.2 µM and the IC50 (H69AR lung cancer cells; Homo sapiens, H69AR) was 35.2 ± 3.2 µM. The IC50 ([3]; Homo sapiens) was 2.8 ± 0.4 µM.
In the case of Cc1ccc(-c2nnc(-c3ccccc3)c3c2C2(CCCCC2)N=C3c2ccc(C(F)(F)F)cc2)cc1 [SPP21], the IC50 ([1]; Homo sapiens, HEK293, 72 h) is reported as 47.1 ± 0.4 µM, the IC50 ([2]; Homo sapiens, MCF7) is reported as 54.7 ± 2.9 µM and the IC50 (H69AR lung cancer cells; Homo sapiens, H69AR) is reported as 21.8 ± 0.6 µM. For the same compound, the IC50 ([3]; Homo sapiens) was 42.7 ± 1.6 µM.
O=[N+]([O-])c1ccc(C2=NC3(CCCCC3)c3c(-c4ccccc4)nnc(-c4ccccc4)c32)cc1 [SPP9] was tested, and the IC50 ([1]; Homo sapiens, HEK293, 72 h) was 47.5 ± 2.6 µM, the IC50 ([2]; Homo sapiens, MCF7) was 57.4 ± 2.8 µM and the IC50 (H69AR lung cancer cells; Homo sapiens, H69AR) was 62.1 ± 1.2 µM. For the same compound, the IC50 ([3]; Homo sapiens) was 89.2 ± 2.5 µM.
Cc1ccc(-c2nnc(-c3ccccc3)c3c2C2(CCCCC2)N=C3c2ccsc2)cc1 [SPP14] was tested, and the IC50 ([1]; Homo sapiens, HEK293, 72 h) was 12.4 ± 0.2 µM, the IC50 ([2]; Homo sapiens, MCF7) was 41.5 ± 0.8 µM and the IC50 (H69AR lung cancer cells; Homo sapiens, H69AR) was 55.3 ± 1.6 µM. It also gave an IC50 ([3]; Homo sapiens) of 61.4 ± 0.5 µM.
